We go through 1 molecule from patent publication US9611485B2, “Polynucleotide and polypeptide sequences associated with herbicide tolerance” (priority 2010, dated 2017).

The subject of experiment [1] is tobacco T1 seedlings and wild type. In words: Saflufenacil soil drench of tobacco T1 seedlings in pots. The class given is in vivo. Conditions: three days after treatment. The text has this: T1 seeds were sown in four inch pots containing soil and allowed to germinate for five days. At this point, with cotyledons visible above the soil, pots were drenched with 100 mls saflufenacil in water at 0.45 ppb. The solution was applied to soil, avoiding direct contact with plant cotyledons.

Experiment [2] relates to Tobacco (cv. Petite Havana) T0 plants. In words: Saflufenacil foliar spray of transgenic T0 tobacco plants, visual injury. The experiment is classed as in vivo. Conditions: 12.5 g/ha spray; for mean visual injury score: tobacco T0 plants carrying the susceptible allele. As for the experimental part:
Tobacco (cv. Petite Havana) was transformed by particle bombardment with plant expression vectors using a strong constitutive promoter to control the GM ABCT1 SUS (susceptible allele, SEQ ID NO: 125) or GM ABCT1 RES (resistant allele, SEQ ID NO: 124) genes using the following protocol: • 1) Weigh 1 mg 0.6 micron gold powder (for 8 shots). Add 1 ml 100% ethanol Sonicate 2 min. Centrifuge at 13,000 rpm×5 sec. Remove Supernatant. Repeat 3 times. • 2) Add 1 ml sterile double-deionized water. Sonicate 2 min. Centrifuge at 13,000 rpm×5 sec. Remove Supernatant. Repeat 2 times. • 3) Add 321 μl sterile water. Vortex and sonicate 2 min. • 4) Add 4 μl of DNA (1 μg/μl concentration) and vortex briefly. • 5) Add 100 μl of 5M CaCl2 and 80 μl of 0.1M Spermidine (14 μl of Spermidine+985.6 μl water prepared freshly). Mix with finger and vortex 2 sec. • 6) Incubate on ice for 1 min. Spin down at 13,000 rpm for 2 sec and remove supernatant. • 7) Add 500 μl of 100% ethanol. Pipette up and down a few times to wash. (It is important to break all big aggregates at this stage). Vortex 2 sec. Spin down at 13,000 rpm for 2 sec and remove supernatant. • 8) Re-suspend in 85 μl of 100% ethanol. Keep on ice. Vortex solution before spreading 10 μl of DNA prep on flying disk. (Sterilize in 100% ethanol for 5-10 min and air dry, also sterilize and air dry 1100 psi rupture disk). • 9) Place tobacco leaf (cv. Petit Havana) abaxial side up in the center of a petri plate containing MS01 medium (MS+B5 vitamins (Phytotechnology M519), Sucrose 30 g/l, agar 8 g/l, BA 2 mg/L, NAA 0.05 mg/L). • 10) Bombard with 28 mm Hg vacuum, position plate at 9 cm (2nd position from bottom), 1100 psi rupture disk. After bombardment, invert leaves so bombarded side and petioles are in contact with medium. • 11) Maintain leaves under 16 hrs/day dim light (<5 μEinstein) for 2-3 days. • 12) Cut leaves into small pieces (0.5 cm×0.5 cm) in MSB-Co (MS+Vit, Glucose 10 g/L, BA 50 mg/L, pH5.2), then blot dry on sterile filter paper and place with bombarded side in contact with the MS01 medium containing hygromycin 25 mg/L under 16 hrs/day light (80-120 μEinstein). When shoots appear, cut and place directly in selection media. • 13) Until shoots appear, change selection medium every 2 weeks. • 14) When entire plantlets are formed (1-2 cm high), leaves are cut into approx. 1-2 mm segments and re-cultured on MS01 medium containing hygromycin 25 mg/L and 8 g/L agar. Subculture to fresh medium every 3 weeks. When new shoots appear, isolate single shoots and transfer onto ½ MS media (M519 2.22 g/L, sucrose 15 g/L, agar 6 g/L).
Stable transgenic events were tested for presence of the transgene by PCR, and transcription of the genes was confirmed by qRT-PCR. Three clonal plants were produced from each transgenic event; two plants from each event were used for the spray experiment.
Plants were grown until 3 to 5 expanded true leaves were present and then sprayed with saflufenacil at a rate of 12.5 g/ha. All treatments were applied in a spray volume of 140 L/ha. Ammonium sulfate was included at 1% w/v. Treated plants were compared to untreated plants of similar genetic background and evaluated for herbicide injury at seven and seventeen days after treatment. Visual injury was on a scale of 0 to 100% injury (0=no effect to 100=dead plant).

Experiment [3] concerns tobacco T1 seeds and wild type seeds. In words: Germination of tobacco T1 seeds on Gelrite plates containing saflufenacil. The class given is in vivo. As for the experimental part: Unsprayed clones of the transgenic tobacco plants described above were grown in a greenhouse until flowering and were allowed to self pollinate. Seeds were harvested and used for further experiments. Transgene insertion copy number was not determined for these plants, but for single copy plants the seeds would be expected to segregate 1homozygous:2hemizygous:1null for the transgene.
T1 seeds from multiple transgenic events carrying the resistant and susceptible alleles, and wild type seeds, were germinated on 1.5% Gelrite (no nutrients or minerals) plates and kept in a growth chamber at 26° C. under a 16 hr light regime. Plate media contained saflufenacil at concentrations down to 0.45 parts per billion (ppb). […] All seed germinated and grew normally on Gelrite plates lacking saflufenacil.

The test system of experiment [4] is Soybean (cv. Jack) T0 plants. In words: Saflufenacil foliar spray of transgenic T0 soybean plants, visual injury. The experiment is classed as in vivo, Glycine max. Conditions: 3 g/ha foliar spray, 7 days after treatment, 0=no effect, 100=dead plant. As for the experimental part:
Soybean was transformed essentially as described in Li et al. (2007) Plant Mol Biol 65:329-341. Soybean (cv. Jack) embryogenic cultures were transformed by particle bombardment with plant expression vectors using a strong constitutive promoter to control the GM ABCT1 SUS (susceptible allele, SEQ ID NO:125) or GM ABCT1 TOL (resistant allele, SEQ ID NO: 124) genes. Stable transgenic events were tested for presence of the transgene by PCR, but no confirmation of expression was performed. Three clonal plants were produced from each transgenic event.
These T0 plants were grown to the V2 to V8 growth stage and then sprayed with saflufenacil at a rate of 3 g/ha. All treatments were applied in a spray volume of 280 L/ha. The spray mixture contained acetone, water, glycerin and surfactant. Treated plants were compared to untreated plants of similar genetic background and evaluated for herbicide injury at seven days after treatment. Visual injury was on a scale of 0 to 100% injury (0=no effect to 100=dead plant). Plants are also visually evaluated for agronomic effects such as interveinal and veinal chlorosis, reddening, leaf malformation, necrosis, apical withering/death/regrowth, and whole plant height.

The structures appear in SMILES notation.

Consider `CC(C)N(C)S(=O)(=O)NC(=O)c1cc(-n2c(=O)cc(C(F)(F)F)n(C)c2=O)c(F)cc1Cl` [saflufenacil], for which the seedling condition entry in experiment [1] (100 mls at 0.45 ppb drenched to soil five days after sowing) is “all seedlings were severely bleached and appeared dead”. In addition, in experiment [1] (100 mls at 0.45 ppb soil drench), the “differences between transgenic lines and wild type” value is on record as “No visible differences”. Besides, the mean visual injury came out at 63% in experiment [2] (tobacco T0 plants carrying the resistant allele, seven days after treatment); 46% in experiment [2] (tobacco T0 plants carrying the resistant allele, seventeen days after treatment); 63% in experiment [2] (transgenic control tobacco plants carrying an unrelated transgene, seven days after treatment); 53% in experiment [2] (transgenic control tobacco plants carrying an unrelated transgene, seventeen days after treatment); 72% in experiment [4] (soybean cv. Jack T0 plants carrying the resistant allele (GM ABCT1 TOL)); 84% in experiment [4] (wild type soy plants). Moreover, the “mean visual injury score” value stood at 77% in experiment [2] (seven days after treatment), 61% in experiment [2] (seventeen days after treatment) and 59% in experiment [4] (soybean cv. Jack T0 plants carrying the susceptible allele (GM ABCT1 SUS)). The “difference between transgenic seed with either GM ABCT1 allele and wild type seed” value in experiment [3] (Gelrite plates containing saflufenacil down to 0.45 ppb) is “No visible difference”. The “seed germination and growth” value in experiment [3] (plate media at 0.91 ppb and 0.45 ppb, transgenic T1 and wild type tobacco seed) was “seeds germinated but were bleached and failed to grow”. Further, in experiment [3] (plate media at concentrations above 0.91 ppb, transgenic T1 and wild type tobacco seed), the seed germination result was “no germination was observed”.
